According to ChEMBL document CHEMBL3991601, “The target landscape of clinical kinase drugs” (Science, 2017):
Structures can show the parent of a compound that is named as a salt. Active and inactive are the calls of the source. On the calls: in the data inactive means no Kd found up to 30 µM.

Columns and labels:
[1] = biological target: T1, Eukaryotic translation initiation factor 5B (Homo sapiens, UniProt O60841)
T1 sequence (O60841 whole entry): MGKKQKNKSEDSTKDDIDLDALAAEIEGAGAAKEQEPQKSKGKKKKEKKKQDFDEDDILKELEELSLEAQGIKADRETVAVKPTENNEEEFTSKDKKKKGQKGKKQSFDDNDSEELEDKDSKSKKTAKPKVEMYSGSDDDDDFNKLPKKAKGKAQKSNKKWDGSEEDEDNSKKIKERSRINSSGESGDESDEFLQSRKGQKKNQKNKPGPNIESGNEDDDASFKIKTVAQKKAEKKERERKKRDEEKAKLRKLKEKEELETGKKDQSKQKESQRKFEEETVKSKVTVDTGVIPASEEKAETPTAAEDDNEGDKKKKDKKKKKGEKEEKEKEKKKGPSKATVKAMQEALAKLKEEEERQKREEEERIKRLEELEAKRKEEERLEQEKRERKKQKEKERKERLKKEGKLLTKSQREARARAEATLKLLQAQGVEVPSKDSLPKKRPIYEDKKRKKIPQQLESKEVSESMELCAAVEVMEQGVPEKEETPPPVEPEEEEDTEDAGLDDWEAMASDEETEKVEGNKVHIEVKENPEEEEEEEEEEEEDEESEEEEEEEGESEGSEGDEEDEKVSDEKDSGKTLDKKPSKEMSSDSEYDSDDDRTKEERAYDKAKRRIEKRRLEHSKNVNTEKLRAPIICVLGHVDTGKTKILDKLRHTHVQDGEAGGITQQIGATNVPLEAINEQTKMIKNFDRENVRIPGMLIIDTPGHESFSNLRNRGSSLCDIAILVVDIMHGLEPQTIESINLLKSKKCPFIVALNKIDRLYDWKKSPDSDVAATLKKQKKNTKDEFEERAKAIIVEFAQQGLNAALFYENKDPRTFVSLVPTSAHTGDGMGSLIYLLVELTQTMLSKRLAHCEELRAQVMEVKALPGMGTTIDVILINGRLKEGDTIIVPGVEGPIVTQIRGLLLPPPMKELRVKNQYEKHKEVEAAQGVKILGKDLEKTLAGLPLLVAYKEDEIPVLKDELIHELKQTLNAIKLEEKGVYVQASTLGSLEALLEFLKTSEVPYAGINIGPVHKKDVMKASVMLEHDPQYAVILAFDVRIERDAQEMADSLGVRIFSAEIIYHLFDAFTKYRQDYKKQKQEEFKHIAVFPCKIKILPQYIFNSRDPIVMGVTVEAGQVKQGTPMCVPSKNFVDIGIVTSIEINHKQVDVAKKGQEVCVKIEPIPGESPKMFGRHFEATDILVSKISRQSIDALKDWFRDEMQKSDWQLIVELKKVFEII

[2] = biological target: T2, ATP-dependent RNA helicase DHX30 (Homo sapiens, UniProt Q7L2E3)
T2 sequence (Q7L2E3 whole entry): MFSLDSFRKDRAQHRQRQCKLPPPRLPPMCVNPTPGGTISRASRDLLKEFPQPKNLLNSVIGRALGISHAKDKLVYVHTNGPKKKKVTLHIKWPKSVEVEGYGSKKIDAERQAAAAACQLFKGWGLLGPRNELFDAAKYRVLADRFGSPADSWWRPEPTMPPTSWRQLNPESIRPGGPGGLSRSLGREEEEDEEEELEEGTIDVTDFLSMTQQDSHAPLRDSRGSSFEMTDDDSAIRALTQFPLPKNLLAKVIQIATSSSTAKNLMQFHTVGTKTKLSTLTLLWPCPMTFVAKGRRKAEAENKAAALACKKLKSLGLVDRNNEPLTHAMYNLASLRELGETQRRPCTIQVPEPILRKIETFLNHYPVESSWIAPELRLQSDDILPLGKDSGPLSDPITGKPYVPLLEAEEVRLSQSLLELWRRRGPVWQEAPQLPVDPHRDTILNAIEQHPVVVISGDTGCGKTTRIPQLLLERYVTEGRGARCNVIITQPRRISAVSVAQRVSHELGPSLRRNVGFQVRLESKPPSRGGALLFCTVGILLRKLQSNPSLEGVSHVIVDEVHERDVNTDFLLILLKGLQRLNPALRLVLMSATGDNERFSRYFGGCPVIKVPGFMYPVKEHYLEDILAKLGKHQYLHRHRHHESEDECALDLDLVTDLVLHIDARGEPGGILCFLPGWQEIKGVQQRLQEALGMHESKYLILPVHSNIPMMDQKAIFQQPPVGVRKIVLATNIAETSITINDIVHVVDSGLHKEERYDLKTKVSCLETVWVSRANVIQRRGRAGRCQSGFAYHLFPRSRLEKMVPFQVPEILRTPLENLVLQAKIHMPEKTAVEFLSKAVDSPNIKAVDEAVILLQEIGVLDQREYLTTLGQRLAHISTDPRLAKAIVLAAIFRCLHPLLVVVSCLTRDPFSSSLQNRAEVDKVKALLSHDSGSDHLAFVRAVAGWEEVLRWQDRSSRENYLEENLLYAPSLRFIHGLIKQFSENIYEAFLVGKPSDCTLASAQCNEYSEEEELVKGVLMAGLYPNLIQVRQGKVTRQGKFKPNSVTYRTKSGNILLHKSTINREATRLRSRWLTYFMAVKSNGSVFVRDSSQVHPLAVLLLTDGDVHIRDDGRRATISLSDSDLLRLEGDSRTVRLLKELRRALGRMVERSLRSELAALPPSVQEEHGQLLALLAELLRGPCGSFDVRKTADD

| Kd [1] | Kd [2] | SMILES |
| --- | --- | --- |
| > 30 µM (inactive) | > 30 µM (inactive) | Cc1csc(-c2nnc(Nc3ccc(Oc4ncccc4-c4ccnc(N)n4)cc3)c3ccccc23)c1 [AMG-900] |
| > 30 µM (inactive) | > 30 µM (inactive) | Cc1cc(C(=O)NOCCO)c(Nc2ccc(I)cc2F)n(C)c1=O [AZD-8330] |
| > 30 µM (inactive) |  | CCn1c(C(=O)N(C2CC2)C2CC2)cc2c3c(ncn3C)c(Nc3cc(C)n(C)n3)nc21 [BMS-911543] |
| > 30 µM (inactive) | > 30 µM (inactive) | COc1cc2ncnc(Oc3cccc(NC(=O)Nc4cc(C(C)(C)C(F)(F)F)on4)c3)c2cc1OC [CEP-32496] |
|  | > 30 µM (inactive) | C#Cc1cccc(Nc2ncnc3cc(OC)c(OCCCCCCC(=O)NO)cc23)c1 [CUDC-101] |
| > 30 µM (inactive) | > 30 µM (inactive) | C[C@@H](Oc1cc(-n2cnc3ccc(CN4CCN(C)CC4)cc32)sc1C(N)=O)c1ccccc1C(F)(F)F [GSK-461364] |
|  | > 30 µM (inactive) | CCn1cc(-c2ccnc3[nH]c(-c4cccc(CN(C)C)c4)cc23)c(-c2ccc(NC(=O)N(C)C)cc2)n1 [GSK-1070916] |
| > 30 µM (inactive) | > 30 µM (inactive) | COc1ccc(S(=O)(=O)N(C(C)=O)c2ccccc2/C=C/c2cc[n+]([O-])cc2)cc1 [HMN-214] |
| > 30 µM (inactive) |  | CCS(=O)(=O)c1cccc(-c2cc(C(=O)NC3CCN(C)CC3)c(C)c3[nH]c4ncc(C)cc4c23)c1 [TAK-901] |

The remaining lines, values behind:

| SMILES | Kd [1] | Kd [2] |
| --- | --- | --- |
| C[C@H]1CNCCCN1S(=O)(=O)c1cccc2cncc(F)c12 | > 30 µM (inactive) |  |
| CC(=O)c1cnc2ccc(-c3cc(Cl)c(O)c(Cl)c3)nc2c1N[C@H]1CC[C@H](CN(C)C)CC1 | > 30 µM (inactive) | 0.006 µM |
| C=CC(=O)N1CCC[C@H](n2c(=O)n(-c3ccc(Oc4ccccc4)cc3)c3c(N)ncnc32)C1 | > 30 µM (inactive) | > 30 µM (inactive) |
| Cc1nc2cc(-c3nn(C(C)C)c4ncnc(N)c34)ccc2o1 | > 30 µM (inactive) | > 30 µM (inactive) |
| COCc1c(-c2ccc(NC(=O)Nc3cc(C(F)(F)F)ccc3F)c(F)c2)c2c(N)ncnn2c1CN1CCOCC1 |  | > 30 µM (inactive) |
| Nc1ncnc2c1c(-c1cccc(OCc3ccccc3)c1)cn2[C@H]1C[C@@H](CN2CCC2)C1 [AEW-541] |  | > 30 µM (inactive) |
| COc1cc(Nc2ncc3c(n2)-c2ccc(Cl)cc2C(c2c(F)cccc2OC)=NC3)ccc1C(=O)O [ALISERTIB] | > 30 µM (inactive) | > 30 µM (inactive) |
| Cc1nc(NC(=O)N2CCC[C@H]2C(N)=O)sc1-c1ccnc(C(C)(C)C(F)(F)F)c1 [ALPELISIB] | > 30 µM (inactive) |  |
| O=C(Nc1c[nH]nc1-c1nc2cc(CN3CCOCC3)ccc2[nH]1)NC1CC1 [AT-9283] | > 30 µM (inactive) | > 30 µM (inactive) |
| C=CC(=O)Nc1cc2c(Nc3ccc(F)c(Cl)c3)ncnc2cc1C#CC(C)(C)N1CCN(C)CC1 [AV-412 FREE BASE] | > 30 µM (inactive) | > 30 µM (inactive) |
| CNC(=O)c1ccccc1Sc1ccc2c(/C=C/c3ccccn3)n[nH]c2c1 [AXITINIB] | > 30 µM (inactive) | > 30 µM (inactive) |
| NC(=O)Nc1cc(-c2cccc(F)c2)sc1C(=O)N[C@H]1CCCNC1 [AZD-7762] |  | > 30 µM (inactive) |
| Cn1cnc2c(F)c(Nc3ccc(Br)cc3F)c(C(=O)NOCCO)cc21 [BINIMETINIB] | > 30 µM (inactive) | > 30 µM (inactive) |
| Cc1cc(Nc2ncc(Cl)c(Nc3ccccc3S(=O)(=O)C(C)C)n2)c(OC(C)C)cc1C1CCNCC1 [CERITINIB] |  | > 30 µM (inactive) |
| COc1c(OCCCN2CCOCC2)ccc2c1N=C(NC(=O)c1cnc(N)nc1)N1CCN=C21 [COPANLISIB] | > 30 µM (inactive) | > 30 µM (inactive) |
| COCC(=O)NC/C=C/c1ccc2ncnc(Nc3ccc(Oc4ccc(C)nc4)c(C)c3)c2c1 [CP-724714] | > 30 µM (inactive) | > 30 µM (inactive) |
| CCS(=O)(=O)N1CCN(c2ccc(Nc3ncc(C(N)=O)c(NC4CC4)n3)cc2)CC1 [Cerdulatinib Hydrochloride] | > 30 µM (inactive) | > 30 µM (inactive) |

| SMILES | Kd [1] | Kd [2] |
| --- | --- | --- |
| CC(C)(C)c1nc(-c2cccc(NS(=O)(=O)c3c(F)cccc3F)c2F)c(-c2ccnc(N)n2)s1 [DABRAFENIB] | > 30 µM (inactive) | > 30 µM (inactive) |
| Cc1nc2cc(-n3ncc(C(=O)c4cc5ccccc5[nH]4)c3N)ccc2[nH]1 [FGFR INHIBITOR DEBIO 1347] | > 30 µM (inactive) |  |
| O=C(Nc1nc2cccc(-c3ccc(CN4CCS(=O)(=O)CC4)cc3)n2n1)C1CC1 [FILGOTINIB] | > 30 µM (inactive) | > 30 µM (inactive) |
| Cc1cccc(-c2nn3c(c2-c2ccnc4ccc(C(N)=O)cc24)CCC3)n1 [GALUNISERTIB] |  | > 30 µM (inactive) |
| O=C(Nc1cc(C(F)(F)F)cc(C(F)(F)F)c1)c1cc(Cl)ccc1O [IMD-0354] | > 30 µM (inactive) |  |
| NC1(c2ccc(-c3nc4ccn5c(=O)[nH]nc5c4cc3-c3ccccc3)cc2)CCC1 [MK-2206] |  | > 30 µM (inactive) |
| CN(C[C@@H]1COCCO1)S(=O)(=O)Nc1ccc2ccc3ncc(-c4cnn(C)c4)cc3c(=O)c2c1 [MK-2461] |  | > 30 µM (inactive) |
| COc1ncc(-c2ccc3nccc(-c4ccnnc4)c3c2)cc1NS(=O)(=O)c1ccc(F)cc1F [OMIPALISIB] | > 30 µM (inactive) |  |
| CCOc1cc2ncc(C#N)c(Nc3ccc(F)c(Cl)c3)c2cc1NC(=O)/C=C/CN(C)C [PELITINIB] |  | > 30 µM (inactive) |
| CCCCCCCCCCCCCCCCCCOP(=O)([O-])OC1CC[N+](C)(C)CC1 [PERIFOSINE] | > 30 µM (inactive) |  |
| CO[C@H]1C[C@@H]2CC[C@@H](C)[C@@](O)(O2)C(=O)C(=O)N2CCCC[C@H]2C(=O)O[C@H]([C@H](C)C[C@@H]2CC[C@@H](OP(C)(C)=O)[C@H](OC)C2)CC(=O)[C@H](C)/C=C(\C)[C@@H](O)[C@@H](OC)C(=O)[C@H](C)C[C@H](C)/C=C/C=C/C=C/1C [RIDAFOROLIMUS] |  | > 30 µM (inactive) |
| N#CC[C@H](C1CCCC1)n1cc(-c2ncnc3[nH]ccc23)cn1 [RUXOLITINIB] | > 30 µM (inactive) |  |
| CN1CCN(CCOc2cc(OC3CCOCC3)c3c(Nc4c(Cl)ccc5c4OCO5)ncnc3c2)CC1 [SARACATINIB] |  | > 30 µM (inactive) |
| COc1cc2c(Nc3ccc(Cl)c(Cl)c3F)ncnc2cc1OC[C@@H]1C[C@@H]2CN(C)C[C@@H]2C1 [TESEVATINIB] |  | > 30 µM (inactive) |
| O=C1NC(=O)[C@@H](c2cn3c4c(cccc24)CCC3)[C@@H]1c1c[nH]c2ccccc12 [TIVANTINIB] | 0.232 µM |  |
| C[C@@H](NC(=O)c1ncnc(N)c1Cl)c1ncc(C(=O)Nc2cc(C(F)(F)F)c(Cl)cn2)s1 [TOVORAFENIB] |  | > 30 µM (inactive) |
| Cn1ncc(Cl)c1-c1cc(C(=O)N[C@H](CN)Cc2ccc(F)c(F)c2)oc1Cl [UPROSERTIB] |  | > 30 µM (inactive) |
